Publication PMC7006816, “Human β-Defensin 2 Mediated Immune Modulation as Treatment for Experimental Colitis” (Frontiers in Immunology, 2020)
Where no end group is shown, it is not given here.

Tests used:
murine BM-DC's [1] = assay: Cytokine production by murine BM-DC's; format: cell-based, mouse
Procedure: (§1) BM-DC's were generated using granulocyte-macrophage colony-stimulating factor (GM-CSF) and RPMI-1640 medium (Merck) supplemented with 10% fetal calf serum (FBS; Life Technologies), 2 mM glutamine (Thermo Fisher), 100 U/ml penicillin/streptomycin (Gibco), 50 μM 2-mercaptoethanol (Roth), 1 mM sodium pyruvate (Biochrome), and 1x non-essential amino acids (Biochrome) as previously described ([28]). Shortly, 2 × 10^6 bone marrow cells flushed from the tibias and femurs of C57BL/6 mice were seeded in dishes containing 200 U/ml GM-CSF. After 3 days extra medium containing GM-CSF was added to the cells and on day 6 half of the medium was replaced by fresh […] containing GM-CSF. After 7 or 8 days slightly attached cells were harvested. Female C57BL/6JolaHsd mice were purchased from Janvier (St. Berthevin Cedex, France). Animal experiments were performed in strict accordance with the German regulations of the Society for Laboratory Animal Science (GV-SOLAS) and the European Health Law of the Federation of Laboratory Animal Science Associations (FELASA). The protocol was approved by the Regierungspräsidium Tübingen (Anzeige 09.01.2014).
2 × 10^5 murine BM-DC's or human Mo-DC's were seeded in 96-well round bottom plates. First they were pretreated with 100 ng/ml pertussis toxin (Sigma-Aldrich) or 5 μM of the CCR2 inhibitor RS 504393 (Tocris) and subsequently stimulated with 100 ng/ml LPS or 0.2 […] and 10 μg/ml or 100 μg/ml hBD2. 24 h later supernatants were collected and TNF-α [Biolegend (BM-DC's); R&D (Mo-DC's)] was analyzed according to the manufacturer's instructions. IL-10, IL-12, and IL-1β (LEGENDplex Biolegend) was as well-analyzed according to the manufacturer's instructions.

murine BM-DC's [2] = assay: Flow cytometry of BM-DCs (p-NF-κB, p-CREB, MHCII, CD86); format: cell-based, mouse; settings: RS504393 prior to LPS + hBD2; n = 6
Procedure: as §1
2 × 10^5 murine BM-DC's were seeded in 96-well round bottom plates and treated as described above. Cells were removed from the plate using Accutase (Sigma-Aldrich) and stained for 20 min at room temperature with Zombie Aqua (Biolegend) to exclude dead cells and extracellular antibodies against CD11c-APC (N418) (Miltenyi), MHCII-FITC (M5/114.15.2) (Miltenyi) and CD86-BV421 (GL-1) (Biolegend). For p-CREB staining cells were fixed and permeabilized with Foxp3 Staining Buffer Set (eBioscience) and stained with primary antibody phosphor-CREB mAb (Ser133; clone 87G3) (Cell Signaling) for 30 min in the dark at room temperature followed by secondary goat anti-rabbit IgG-DyLight™649 (Jackson ImmunoResearch) for 15 min at 4°C. To detect intracellular p-NF-κB BM-DCs were fixed with 2% paraformaldehyde (VWR) in PBS, permeabilized with 90% freezing methanol (Applichem) and stained with the primary antibodies to phosphor-NF-κB p65 (93H1) (Cell Signaling) for 60 min in the dark at room temperature followed by goat anti-rabbit IgG-PE-Cy7 (Santa Cruz Biotechnology) for 15 min at 4°C. PBS with 0,5% bovine serum albumin (Biomol) was used for all incubations and washing steps. At least 50,000 cells were acquired using a Canto-II flow cytometer (BD […]) with DIVA software (BD Biosciences) and were further analyzed using FlowJo 10.5 software (Tree Star).

[3] = tested on: SCID mice with CD4+/CD25− T cell transfer colitis; assay: T cell transfer colitis model; format: in vivo, mouse
Procedure: This study was performed by the Department of Biomedical Science at the University of Catania according to directive 86/609 EEC and approved by Novozymes science ethics committee. 8 weeks old female BALB/c and C.B-17 female SCID mice were purchased from Harlan (Italy). Colitis was induced in severe combined immunodeficiency (SCID) mice by transplantation of CD4^+/CD25^− T cells from the BALB/c mice. Briefly, lymphomonocytes isolated from spleen or lymph nodes from BALB/c mice were subjected to negative selection of CD4^+ T cells. Afterwards, CD4^+/CD25^+ cells were positively isolated by binding to the beads from the CD4^+ T cell suspensions and the CD4^+/CD25^− were collected from supernatant. […] CD4^+/CD25^− cells were intraperitoneally injected to SCID mice at a concentration of 500,000 cells in a final volume of 0.2 ml RPMI 1640. Sham treated animals (n = 6) received 0.2 ml pure RPMI 1640. Diseased mice were randomized divided into 4 groups (n = 11) and treated once daily by s.c. application of PBS (vehicle), hBD2 (0.1 and 1 mg/kg, respectively) or 0.3 mg/kg Dexamethasone (Dexa., applied intraperitoneally). Treatments started 7 days post T cell transfer and continued daily for 86 days. Animals were weighed three times a week and monitored twice a week starting from day 42 for the clinical status, summarized as DAI. The DAI included body weight loss, stool consistency, and the presence of blood at the rectum. One animal in the vehicle and one in the Dexamethasone treated groups had to be sacrificed before the end of the study. At the end of the study, animals were sacrificed and the colon was removed and carefully cleaned for further analysis. First, the colon was weighed then a section from the middle was removed and fixed for pathologic survey. The rest of the colon (5 cm) was used to quantify the activity of myeloperoxidase in the tissue.
Myeloperoxidase activity was performed on 5 cm of colon previously frozen at −80°C. Colon was homogenized in 0.5% of HETAB dissolved in 10 mM of Phosphate-Citrate Buffer (pH 7.0) to enable the release of MPO enzyme from the neutrophil granules. Homogenated samples after three freeze-thaw cycles were spun at 3,000 × g at 4°C for 30 min. Pellets were resuspended in 0.5% HETAB in 10 mM Phosphate-Citrate Buffer and spun again at 3,000 × g at 4°C for 30 min. 500 ul of supernatant were delivered into a vial along with 500 ul of TMB in Phosphate-Citrate Buffer containing Perborate Sodium. Changes in absorbance at 620 and 450 nm were read by a spectrophotometer (IRIS). Peroxidase enzyme diluted in 0.5% HETAB in 10 mM Phosphate-Citrate Buffer and H2O was used as standard. Two-fold dilutions of standard were prepared at the highest concentration of 50 pg/ml. Reagents and samples were kept refrigerated. Substrate solution was prepared just before the assay. MPO activity expresses the amount of enzyme that is able to degrade […] of peroxide/min and it is expressed as U/g tissue weight.
Sections of the colon were taken from each animal and preserved in neutral buffered formaline for subsequent histological analysis. Sections were stained using haematoxylin and eosin for further scoring.

CD patients = settings: clinical trial; cited from earlier work
From the text: Despite ongoing development of therapeutic approaches, new treatment strategies for the management of IBD are still urgently needed. Corticosteroids remain the standard therapeutic options for active CD and UC. However, their beneficial effects are associated with severe side effects such as osteoporosis, moon face, mood disturbances, glaucoma, and hypertension ([47]). In recent years, several new therapeutics targeting the molecular mechanisms of intestinal and systemic inflammation have been developed. Among these, anti-TNFα antibodies have been the most successful and most commonly used bio ...

[4] = tested on: human dendritic cells and keratinocytes; settings: cited from earlier work
From the text: Herein we report that hBD2 can be used as a systemically administered anti-inflammatory biological. hBD2 is well-tolerated, both in vitro, and in vivo. […] After su ...

mice with DSS colitis = settings: rectally applied; cited from earlier work
[5] = Dexamethasone 0.3 mg/kg i.p. daily, n = 10

Cc1ccc2c(c1)C1(CCN(CCc3nc(-c4ccccc4)oc3C)CC1)OC(=O)N2 [RS504393, RS 504393, reference compound]
Effect of pre-treatment on hBD2 modulation of cytokine secretion (murine BM-DC's [1]; 5 μM RS504393 before LPS and hBD2): prevented the anti-inflammatory effect of hBD2 | Effect of pre-treatment on hBD2-mediated change of CREB phosphorylation (murine BM-DC's [2]): prevented the increase in CREB phosphorylation | Effect of pre-treatment on hBD2-mediated change of MHCII and CD86 expression (murine BM-DC's [2]): prevented this lower expression | Effect of pre-treatment on hBD2-mediated change of NF-κB phosphorylation (murine BM-DC's [2]): prevented the hBD2-mediated reductions in NF-κB activation

C[C@@H]1C[C@H]2[C@@H]3CCC4=CC(=O)C=C[C@]4(C)[C@@]3(F)[C@@H](O)C[C@]2(C)[C@@]1(O)C(=O)CO [dexamethasone, Dexamethasone, reference compound]
Histological analysis of colon ([3]; Dexamethasone 0.3 mg/kg i.p. daily): Less signs of inflammation | Efficacy compared with hBD2 ([3]; Dexamethasone 0.3 mg/kg i.p. daily vs hBD2 s.c.): superior to hBD2 in the T cell transfer model | Colon weight [3, 5]: improved DAI, stool score and colon weight significantly | DAI [3, 5]: improved DAI, stool score and colon weight significantly | Stool score [3, 5]: improved DAI, stool score and colon weight significantly

Secukinumab
Disease course in CD patients (CD patients): worsened the disease

hBD3: defensin named only as hBD3, cited for cytotoxicity in contrast to hBD2 (GIINTLQKYYCRVRGGRCAVLSCLPKEEQIGKCSTRGRKCCRRKK; ends and bridges not checked; cysteine pairing not given here; UniProt P81534 23-67, looked up)
Cytotoxic effects [4]: demonstrated cytotoxic effects

pertussis toxin [reference compound]
Effect of pre-treatment on hBD2 modulation of TNF-α, IL-1β, IL-10, IL-12p70 secretion (murine BM-DC's [1]; 100 ng/ml pertussis toxin before LPS and hBD2): prevented the observed immunomodulatory capacity of hBD2

porcine β-defensin 2 [pBD2]
Mucosal injury and epithelial barrier in DSS colitis (mice with DSS colitis): protective against mucosal injury and disruption of the epithelial barrier
